Measurements taken from US11311531B2, “Method for producing benzazoloquinolium (BQs) salts and using the biological activity of the composition” (Sistema Universitario Ana G. Mendez, Inc., priority 2014, dated 2022).

Assays:
[1] = test system: NCI 60 human tumor cell line panel; assay: NCI 60 human tumor cell line screen, one dose, whole panel; type: cell-based; settings: for activity in the NCI 60 screen (growth inhibition, in words): one dose; for growth inhibition: 10 μM
Description: (§1) The National Cancer Institute (NCI) 60 human tumor cell line screen uses genetically characterized cells to determine biological activity against various cell lines. The panel is comprised of various cell types representing some of the most important cancer types. Two of the benzazolo[3,2-a]quinolinium salts i.e. NBQ 48 (NSC: D-763303) and ABQ 48 (NSC: D-763307) were tested at a dose of 10 μM on the entire cell line panel. The complete details of the NCI-60 cell line screening are describe in document Feasibility of drug screening with panels of human tumor cell lines using a microculture tetrazolium assay. Cancer research, 1988, 48(3), 589-601 (here included by reference).
(§2) Briefly, the cancer cells are grown in RPM1 1640 medium for 24 hours. Experimental compounds dissolved in DMSO are incubated with cells at 10 μM. After incubation the cells are stained with sulforhodamine B and the absorbance is read on a plate reader. The data reported as a mean graph are shown in the drawings FIG. 21 through FIGS. 24A-24I. For five dose study the test compound is incubated with cells at five different concentrations with 10-fold dilutions, from 10^−4 M, 10^−5, 10^−6, 10^−7, and 10^−8 M. Rest of the procedure is similar to the one dose experiment. After measurement, the (GI50) is calculated from time zero, control growth, and the five concentration absorbance. Inhibitory concentrations (LC50) represent the average of two experiments.
(§3) All the one-dose data of these compounds is reported as a mean of the growth percent of BQ exposed cells. One dose assay results are relative to control and number of cells at time 0. Growth inhibition values are placed from 0 to 100 whereas lethality is reflected in values less than 0. A sample obtained value of 100 means that no growth was inhibited. If the value is for example 30 then growth inhibition is 70%. If a sample has a value of −30 then this means 30% lethality, conversely if the value would be −100 the all cells in the sample are dead.

TK-6 cells = assay: DNA fragmentation, NC3000 DAPI assay; type: cell-based, human; settings: TK6, 48 hours
Description: (§4) Methods—Cultures were exposed for 48 hours to ABQ 48 at doses from 10 μM to 180 μM. Cells were harvested counted and assessed for cell viability implementing the Trypan Blue exclusion method using the Countess™ automated cell counter (Invitrogen Corp. Carlsbad, Calif.). The percentage of viable cells was calculated and graphed using Excel (Microsoft Corp. Redmond, Wash.). The mitochondrial membrane permeability assays was determined applying the Nucleocounter 3000, JC-1 assay. DNA fragmentation and cell cycle alterations were analyzed also through the Nucleocounter 3000 instrument.
(§5) Bioactivity 3. DNA fragmentation—Fragmentation of DNA as a marker for apoptosis is a commonly used assay. Analysis was performed applying the Nucleo counter NC3000 DNA fragmentation assay. Determination of the degree of DNA fragmentation is based on the retention of DAPI, a nucleic acid staining reagent. As described previously TK-6, and Toledo cells were kept in culture at the specified conditions. Cells where then treated with the tested compounds as previously described for 48 hours, after which nutritional media removed, cells harvested, fixed with 70% ethanol, incubated and stained with 1 μg/ml DAPI according to manufacturer's specifications for image analysis measuring DAPI intensity.
(§6) DNA fragmentation—Analysis was performed applying the Nucleo counter NC3000 DNA fragmentation assay. Determination of the degree of DNA fragmentation is based on the retention of DAPI, a nucleic acid staining reagent. Prior to treatment with the tested compounds A431 and TK-6 cells were kept in culture at the specified conditions. Cells where then treated with the tested compounds at the respective IC50 concentrations ([…] DNA fragmentation protocol was as recommended by Nucleo counter NC3000 manufacturer.

Toledo cells [2] = assay: DNA fragmentation, NC3000 DAPI assay; type: cell-based, human; settings: 48 hours
Description: as §4, §5

[3] = Cytotoxicity activity of CBQs; type: cell-based; settings: human, A-431 cells; A-431 cell line
A431 cells = assay: DNA fragmentation, NC3000 DAPI assay; type: cell-based, human; settings: A431, ABQ 48 exposure
Description: as §4, §6

Toledo = assay: Mitochondrial membrane permeability, JC-1 assay; type: cell-based, human
Description: as §4

A431 [4] = assay: Mitochondrial membrane permeability, JC-1 assay; type: cell-based, human
Description: as §4

TK6 [5] = assay: Mitochondrial membrane permeability, JC-1 assay; type: cell-based, human
Description: as §4

Toledo cells [6] = assay: Cell cycle disruption, DAPI image analysis; type: cell-based, human; settings: 48 hours
Description: as §4
(§7) Bioactivity 4. Cell Cycle disruption—Cell cycle effects are of great importance to the characterization of any novel therapeutic agent. This most fundamental cellular process is integral in determining the effects of any drug upon the target cells. After treatment with the tested BQs at previously described conditions, cells were harvested, and stained with 10 μg/ml DAPI (a DNA marker) according to manufacturer's specifications and analyzed with the instrument using image analysis to measure the DAPI intensity as an indicator of the DNA density.

Toledo lymphoma cells = assay: Cell viability, Trypan Blue exclusion; type: cell-based, human
Description: (§8) Cell cultures—The three cell lines A431 epitheloid carcinoma cells (ATCC CRL-1555), the human TK-6 lymphoblasts cells (ATCC CRL-8015) and Toledo lymphoma (CRL-2631 respectively) were obtained from American Type Culture Collection (ATCC, Manassas, Va.) and cultured on RPMI 1640 (ATCC) cell culture media with 10% fetal bovine serum (ATCC). Cell cultures were maintained in a cell culture incubator at 37° C. and 5% CO2.
as §4

[7] = test system: A431 epitheloid carcinoma cells; assay: Cell viability, Trypan Blue exclusion; type: cell-based, human
Description: as §8, §4

TK-6 lymphoblasts cells = assay: Cell viability, Trypan Blue exclusion; type: cell-based, human
Description: as §8, §4

A431 [8] = assay: Cell cycle disruption, DAPI image analysis; type: cell-based, human; settings: A431, ABQ 48 exposure
Description: as §4
as §7, with “Cell” for “Bioactivity 4. Cell”, “agent.” for “agent. This most fundamental cellular process is integral in determining the effects of any drug upon the target cells.”, “BQS 95 and BQS 38” for “BQs”

TK6 [9] = assay: Cell cycle disruption, DAPI image analysis; type: cell-based, human; settings: Tk6, ABQ 48 exposure
Description: as §4
as §7, with “Cell” for “Bioactivity 4. Cell”, “agent.” for “agent. This most fundamental cellular process is integral in determining the effects of any drug upon the target cells.”, “BQS 95 and BQS 38” for “BQs”

KM12 = assay: NCI 60 human tumor cell line screen, one dose; type: cell-based; settings: 10 μM
Description: as §1, §2, §3

U251 = assay: NCI 60 human tumor cell line screen, one dose; type: cell-based; settings: 10 μM
Description: as §1, §2, §3

SK-MEL-5 = assay: NCI 60 human tumor cell line screen, one dose; type: cell-based; settings: 10 μM
Description: as §1, §2, §3

[10] = test system: human colorectal adenocarcinoma COLO-205; assay: Mitochondrial membrane permeability, JC-1 NC3000; type: cell-based; settings: colo 205, versus negative control and camptothecin
Description: (§9) Cell culture conditions: The cell cultures utilized in this study were human colorectal adenocarcinoma COLO-205 (ATCC CCL-222). Cultures were maintained in RPMI 1640 media (ATCC, Manassas Va.) supplemented with 10% fetal bovine serum (ATCC) maintained at 37° C. with 95% air and 5% CO2. Apoptosis analysis by Annexin V expression: The annexin V assay allows detection of the migration phosphatidylserine (PS) to the exterior surface of cells, a characteristic event in apoptotic cells. Approximately 2.5×10^6 cells were treated for 24 hours with 10 μM and 20 μM doses of the BQ test compounds. Controls used in all assays were camptothecin 10 and vehicle (DMSO). […] Samples were analyzed by using the Nucleo Counter NC3000 system annexin V assay (Chemometec, Allerød, Denmark). This system allows for measurement and quantification of stained cells. […] This enzyme mediated event can be quantified by measuring DNA fragments. […] After treatment with BQ's at the test doses, cells were fixed with 70% ethanol for at least 24 hours, stained with 1 μg/ml DAPI, and analyzed using the NC3000 instrument measuring DAPI intensity. […] Approximately 1×10^6 cells were stained with 5,5′,6,6′-Tetrachloro-1,1′,3,3′-tetraethyl-imidacarbocyanine iodide (JC-1) and 1 μg/ml DAPI and analyzed in the NC3000. depolarized cells will fluoresce green while cells with stable mitochondrial membrane potential will fluoresce orange. […]

[11] = test system: human colorectal adenocarcinoma COLO-205; assay: DNA fragmentation, NC3000 DAPI; type: cell-based; settings: colo 205, versus negative control and camptothecin
Description: as §9

[12] = test system: human colorectal adenocarcinoma COLO-205; assay: Apoptosis analysis by Annexin V expression; type: cell-based; settings: 24 hours
Description: Cell culture conditions: The cell cultures utilized in this study were human colorectal adenocarcinoma COLO-205 (ATCC CCL-222). Cultures were maintained in RPMI 1640 media (ATCC, Manassas Va.) supplemented with 10% fetal bovine serum (ATCC) maintained at 37° C. with 95% air and 5% CO2. Apoptosis analysis by Annexin V expression: The annexin V assay allows detection of the migration phosphatidylserine (PS) to the exterior surface of cells, a characteristic event in apoptotic cells. Approximately 2.5×10^6 cells were treated for 24 hours with 10 μM and 20 μM doses of the BQ test compounds. Controls used in all assays were camptothecin 10 and vehicle (DMSO). After a 24-hour exposure, cells were stained with the annexin V conjugate, and propidium iodide (Biotium, Hayward, Calif.). Samples were analyzed by using the Nucleo Counter NC3000 system annexin V assay (Chemometec, Allerød, Denmark). This system allows for measurement and quantification of stained cells. A one-way ANOVA with post hoc Tukey test was also performed for all assays using GraphPad Prism version 6. DNA Fragmentation: DNA Fragmentation can be used as a marker for detection of cells undergoing apoptosis. This enzyme mediated event can be quantified by measuring DNA fragments. The Nucleo Counter NC3000 assay is based on removal of small DNA fragments and retention of 4′,6-diamidino-2-phenylindole (DAPI) stained higher weight fragments. After treatment with BQ's at the test doses, cells were fixed with 70% ethanol for at least 24 hours, stained with 1 μg/ml DAPI, and analyzed using the NC3000 instrument measuring DAPI intensity. Mitochondrial Membrane Permeability: Mitochondria permeability is central in the cell death process. The Nucleocounter NC3000 preset mitochondrial potential assay was used. Approximately 1×10^6 cells were stained with 5,5′,6,6′-Tetrachloro-1,1′,3,3′-tetraethyl-imidacarbocyanine iodide (JC-1) and 1 μg/ml DAPI and analyzed in the NC3000. depolarized cells will fluoresce green while cells with stable mitochondrial membrane potential will fluoresce orange. The change in ratio of green to orange fluorescence will determine the permeability state of the samples.

Compound: 7-benzyl-3-nitrobenzimidazolo[3,2-a]quinolinium chloride [NBQ-48]
- activity in the NCI 60 screen (growth inhibition, in words) [1]: less effective
- DNA fragmentation (TK-6 cells): higher than the negative control
- DNA fragmentation (Toledo cells [2]): higher than the negative control

Compound: Cc1ccc2sc3ccc4c(Cl)cccc4[n+]3c2c1 [CBQ-108, 4-Chloro-10-methylbenzothiazolo[3,2-a]quinolinium chloride]
- IC50 [3]: 3.7 µM

Compound: Nc1ccc2c(ccc3n2c2ccccc2[n+]3Cc2ccccc2)c1.[Cl-] [ABQ-48, 7-Benzyl-3-aminobenzimidazo[3,2-a]quinolinium chloride]
- DNA fragmentation (A431 cells): observed
- mitochondrial membrane permeability (Toledo): observed
- mitochondrial membrane permeability (A431 [4]): observed
- mitochondrial membrane permeability (TK6 [5]): observed
- cell cycle alteration (Toledo cells [6]; listed as ABQ 48): observed
- cell cycle alteration (Toledo cells [6]; listed as ABQ48): arrested at the S/G2 stage
- growth inhibition ([1]; in no less than 8 cell lines): greater than 60%
- growth inhibition ([1]; in several cell lines): > 70%
- activity in the NCI 60 screen (growth inhibition, in words) [1]: highly effective
- DNA fragmentation (TK-6 cells; listed as ABQ 48): observed
- DNA fragmentation (TK-6 cells; listed as ABQ48): higher than the negative control
- DNA fragmentation (Toledo cells [2]; listed as ABQ 48): observed
- DNA fragmentation (Toledo cells [2]; listed as ABQ48): higher than the negative control
- IC90 (Toledo lymphoma cells): 100 µM
- IC50 (Toledo lymphoma cells; 48 hours exposure): 50 µM
- IC90 ([7]; A431): 90 µM
- IC50 ([7]; A431, 48 hours exposure): 23 µM
- IC90 (TK-6 lymphoblasts cells; Tk6): 135 µM
- IC50 (TK-6 lymphoblasts cells; Tk6, 48 hours exposure): 8.6 µM
- cell cycle alteration (A431 [8]): observed
- cell cycle alteration (TK6 [9]): observed
- growth inhibition (KM12): > 90%
- growth inhibition (U251): > 90%
- growth inhibition (SK-MEL-5): > 90%

Compound: 7-(2,3,4-Trimethoxybenzyl)-3-aminostyrylbenzimidazo[3,2-a]quinolinium chloride [ABQ 234 TOM]
- mitochondrial membrane permeabilization [10]: higher mitochondrial permeabilization in comparison with the negative control (water as vehicle) and similar to the positive control camptothecin
- DNA fragmentation induction [11]: did not present evidence of DNA fragmentation
- apoptotic cells ([12]; 10 μM): 91%
- apoptotic cells ([12]; 20 μM): 91%

Compound: 7-(2,3,4-trimethoxybenzyl)-3-nitrobenzimidazo[3,2-a]quinolinium chloride [NBQ 234 TOM]
- mitochondrial membrane permeabilization [10]: higher mitochondrial permeabilization in comparison with the negative control (water as vehicle) but lower than cells treated with the positive control camptothecin
- DNA fragmentation induction [11]: higher DNA fragmentation in comparison with the negative control (water as vehicle) and higher than the positive control camptothecin
- apoptotic cells ([12]; 10 μM): 83.7%
- apoptotic cells ([12]; 20 μM): 87.5%
